Source: ChEMBL document CHEMBL1157539, “Thousands of chemical starting points for antimalarial lead identification” (Nature, 2010)

These molecules were tested on Plasmodium falciparum (assay: GSK_TCMDC: Inhibition of Plasmodium falciparum 3D7 in whole erythrocytes, using parasite LDH activity as an index of growth.). Conditions: Plasmodium falciparum, 3D7.
Assay type: functional, organism-based

| SMILES | XC50 |
| --- | --- |
| CN(C)c1ccc(-c2csc(C(=O)NCC3CCN(Cc4ccc(C(C)(C)C)cc4)C3)c2)cc1 (stereo not drawn) | 986 nM |
| COc1ccc(-c2c3c(=O)n(C)c(=O)n(C)c3c3nnc4ccccc4n23)cc1 | 991 nM |
| Cc1c(CNCCCNc2nc3cscc3[nH]2)sc(C(F)F)c1Br | 936 nM |
| CC(Sc1nnc(-c2cccs2)[nH]1)C(=O)c1c[nH]c2ccccc12 (stereo not drawn) | 1800 nM |
| Cn1cnc(-c2ccc3c(c2)CCN(CCC2CCC(NC(=O)/C=C/c4ccc(F)cc4)CC2)CC3)c1 (stereo not drawn) | 904 nM |
| CCOc1cc(C(=O)N[C@@H](Cc2ccccc2)[C@H](O)CNCc2cc(OC)cc(OC)c2)cc(N2CCCC2=O)c1 | 852 nM |
| COc1ccc2ncc(C#N)c(CCN3C4CCC3CC(NCc3ccc5c(n3)NC(=O)CS5)C4)c2c1 (stereo not drawn) | 810 nM |
| CC(C)c1cc2c(cc1O)C(Cc1ccccc1Cl)N(C)CC2 (stereo not drawn) | 732 nM |
| CCOc1ccc(-c2nc(NC(=O)Cc3cccc(OC)c3)sc2C)cc1 | 730 nM |
| c1ccc2c(CNCCCCCCNCc3c(OCC4CC4)ccc4ccccc34)c(OCC3CC3)ccc2c1 | 928 nM |
| COC(=O)c1cc(/C(C)=N/Nc2nc3ccccc3[nH]2)ccc1O | 676 nM |
| CCCc1ccc(Nc2nc(C)cc(N(CC)CCCN3CCCCC3)n2)cc1 | 543 nM |
| N=C(N)NCCCN(Cc1ccccc1)c1ccc(Cl)cc1 | 564 nM |
| Fc1cc(Cl)ccc1Nc1ccnc2cc(-c3ccc(CN4CCCCC4)o3)ccc12 | 337 nM |
| COCCn1c(C)cc(C(=O)CN2C(=O)NC(C)(c3ccc(C(C)(C)C)cc3)C2=O)c1C (stereo not drawn) | 475 nM |
| O=C(/C=C/c1ccc(Cl)c(Cl)c1)N1CCC(CCCN2CCC(c3c[nH]c4ccccc34)CC2)CC1 | 707 nM |
| Fc1ccc(NC(=S)NCCc2ccccc2)cc1 | 781 nM |
| O=C(Nc1cccc(CN2CCCN(Cc3ccsc3)CC2)c1)c1ccc(Cl)c(Cl)c1 | 885 nM |
| Cc1cc2c(cc1C(F)(F)F)N(C(=O)Nc1cc(OCCN(C(C)C)C(C)C)cc(C(F)(F)F)c1)CC2 | 259 nM |
| Cc1nc(N)nc(N)c1Oc1cccc(Cl)c1 | 871 nM |
| CN1CCC(Oc2ccc(CN3CC[C@H](NC(=O)c4cc(F)cc(F)c4)C3)c3ccccc23)C1 (stereo partly drawn) | 841 nM |
| COC(=O)c1ccc(CC(C)NCC(O)c2cccc(Cl)c2Cl)cc1 (stereo not drawn) | 548 nM |
| Cc1c(Cl)cccc1N=C(S)NN=Cc1ccccn1 | 603 nM |
| O=C(Nc1cccnc1)c1cc(C(=O)Nc2cccnc2)cc([N+](=O)[O-])c1 | 1120 nM |
| COc1ccccc1N1CCN(CCCCNC(=O)c2ccc(NC(=O)c3ccc(OC(F)(F)F)cc3)cc2)CC1 | 663 nM |

| SMILES | XC50 |
| --- | --- |
| CN1CCN(CC(=O)Nc2cccc(-c3ccc(-c4nc5cc(C(F)(F)F)ccc5[nH]4)cc3)c2)CC1 | 520 nM |
| CC(=O)Nc1ccc(OCCN(CC(C)(C)C)c2ccc(C#N)c(C(F)(F)F)c2)c(Cl)c1 | 493 nM |
| O=C(NC1CCN(Cc2ccccc2)CC1)c1cc(C(=O)NC2CCN(Cc3ccccc3)CC2)cc(C(=O)NC2CCN(Cc3ccccc3)CC2)c1 | 1040 nM |
| CCC(Cc1cnc2nc(N)nc(N)c2n1)c1ccc(C(=O)O)cc1 (stereo not drawn) | 250 nM |
| Cc1cc(N[C@@H](CC(C)C)C(=O)Nc2ccccc2)nc(NCCc2ccc(F)cc2)n1 | 1090 nM |
| COc1ccc2ncc(F)c(CCN3C4CCC3CC(NCc3ccc5c(c3)OCCO5)C4)c2n1 (stereo not drawn) | 225 nM |
| CCc1ccnc2c(N3CCCC3=O)cc(C(=O)N[C@@H](Cc3ccccc3)[C@H](O)CNC3CCOCC3)cc12 | 381 nM |
| C=C1C(C(=O)OCC)=CN(CC)c2cc(O[C@@H]3CCN(C(=O)OC(C)(C)C)C3)ccc21 | 290 nM |
| Cc1ccoc1C(=O)Nc1cccc(-c2cccc(-c3nc4cccc(C)c4[nH]3)c2)c1 | 675 nM |
| CC1CN(c2cc(=O)n(Cc3ccc(NC(=O)Nc4ccc(-c5ccccc5)cc4)cc3)cn2)CC(C)N1 (stereo not drawn) | 974 nM |
| COc1ccc(S(=O)(=O)NC2CCN(CCNC(=O)Nc3cc(C)nc4ccccc34)C2)cc1 (stereo not drawn) | 1190 nM |
| Nc1nc(N)c2c(Cl)c(CNc3cccc(C(=O)O)c3)ccc2n1 | 8.88 nM |
| FC(F)(F)c1ccc(NC(=S)N2CCC(CN3CCC(c4c[nH]c5ccccc45)CC3)CC2)cc1 | 663 nM |
| CN1CCN(c2cc(-c3ccncc3)nc(-c3cccnc3)n2)CC1 | 809 nM |
| CNC(=O)C1Cc2c([nH]c3cc(Cl)ccc23)C2(CCN(CCc3ccccc3)CC2)N1 (stereo not drawn) | 934 nM |
| Cc1ccc(NC(=O)c2ccc3ncccc3c2)cc1OC1CCN(Cc2ccc(F)cc2)CC1 | 944 nM |
| O=C(Nc1cc(Oc2ccc(O)cc2)cc([N+](=O)[O-])c1)c1cc(-c2ccc(F)cc2)no1 | 955 nM |
| Cn1nc2ccc3ccccc3c2nc1=N | 773 nM |
| O=C(Nc1ccc(C(=O)N2CCN(CCN3CCN(c4cccc(C(F)(F)F)c4)CC3)CC2)cc1)c1ccc(C(F)(F)F)cc1 | 690 nM |
| CCN(CC)CCCC(C)Nc1ccnc2cc(C#N)ccc12 (stereo not drawn) | 139 nM |
| Fc1ccc(C=NN=c2cc[nH]c3ccccc23)cc1 | 706 nM |
| COc1cc(C)cc(CN2CCC(Cc3ccccc3)CC2)c1O | 1020 nM |
| COc1ccc2[nH]ccc(=NN=Cc3ccc(N(C)C)cc3)c2c1 | 799 nM |
| COc1ccnc(NCCCNCc2cn(S(=O)(=O)c3ccccc3)c3ccccc23)c1 | 790 nM |
| O=c1cc(NCCCCNCc2ccc(Br)c(Br)c2)[nH]c2ccccc12 | 856 nM |

| SMILES | XC50 |
| --- | --- |
| CCCNc1nc(NCc2c(C)cccc2C)nc(NC(C)(C)C)n1 | 862 nM |
| COc1ccc(CNC2CCN(C)CC2)cc1-c1cccc(S(=O)(=O)NCc2ccccc2)c1 | 723 nM |
| NCCCN(Cc1ccc(Cl)c(Cl)c1)C(=O)Nc1ccc(Cl)c(Cl)c1 | 898 nM |
| CN(CC1CCC(NC(=O)/C=C/c2ccc(Cl)c(Cl)c2)CC1)C1CCC(c2c[nH]c3ccccc23)CC1 (stereo not drawn) | 837 nM |
| O=C(Nc1cccc(-c2ccc(-c3nc4cc(F)ccc4[nH]3)cc2)c1)c1ccoc1 | 962 nM |
| CCN1C(=O)C(CC(=O)Nc2cccc(Cl)c2)N(Cc2ccc(OC)c(OC)c2)C1=S (stereo not drawn) | 607 nM |
| COc1cc2nc(N3CCC(CNC(=O)c4ccc(-c5ccc(C(=O)N(C)C)cc5)c(OCCO)c4)CC3)nc(N)c2cc1OC | 730 nM |
| CNC(=O)c1cnc(Nc2ccc(OCC(O)CN(C)C)cc2)nc1Nc1cccc(OC(C)C)c1 (stereo not drawn) | 137 nM |
| Cc1cc(N[C@@H](CC(C)C)C(=O)Nc2ccccc2)nc(NCc2ccccc2C)n1 | 777 nM |
| Cc1cccc(CN2CCC(Oc3ccc(NC(=O)c4cccs4)cc3Cl)CC2)n1 | 844 nM |
| COc1ccc(S(=O)(=O)Nc2cc(C)cc(Br)c2OC)cc1N1CCN(C(=O)C(Cl)(Cl)Cl)CC1 | 871 nM |
| C1=C(c2c[nH]c3ccccc23)CCN(Cc2ccccc2)C1 | 1040 nM |
| CCCNCc1ccc(-c2ccc(CN(CCOC)C(=O)CC3CCCC3=O)cc2)nc1 (stereo not drawn) | 1240 nM |
| N=C1N=C(N)NCN1OCc1ccc(Cl)c(Cl)c1 | 194 nM |
| O=S(=O)(/C=C/c1ccccc1)N(Cc1ccc(-c2ccc(CNCCc3ccccc3)cc2)cc1)CC1CCCCN1 (stereo not drawn) | 794 nM |
| Ic1cc(Nc2ncnc3ccsc23)ccc1OCc1ccccc1 | 773 nM |
| CCCCc1cc(NCC)nc(Nc2cccc(OC)c2)n1 | 922 nM |
| CN(c1ccccc1)S(=O)(=O)c1cccc(NC(=O)c2ccc(-n3ccnc3)c([N+](=O)[O-])c2)c1 | 1130 nM |
| COc1ccc(N2CCN(CCCCNC(=O)c3ccc(NC(=O)c4ccc(Cl)c(Cl)c4)cc3)CC2)c(OC)c1 | 212 nM |
| COCCNCc1ccc(-c2ccc3c(Nc4ccc(Cl)cc4F)ccnc3c2)o1 | 206 nM |
| CCCC(C)Nc1nc(C)cc(N[C@@H](CC(C)C)C(=O)NCc2ccc(C)cc2)n1 (stereo partly drawn) | 1010 nM |
| CN(C)CC1CCCN1Cc1ccccc1-c1cnn(C)c(=O)c1Oc1cccc(C#N)c1 (stereo not drawn) | 1340 nM |
| Cc1ccccc1N1CCN(c2ccc(C(=O)NC3CC3)cn2)CC1 | 459 nM |
| C[C@H]1CN(Cc2cccc(-c3cc(CNC(=O)c4cccc(CN5CCN(C/C=C/c6ccccc6)CC5)c4)ccc3F)c2)CCN1 | 852 nM |
| C=CCOc1ccccc1CNCC(O)c1cc(Br)cs1 (stereo not drawn) | 332 nM |

| SMILES | XC50 |
| --- | --- |
| O=[N+]([O-])c1cccc(/C=N/Nc2ccnc3ccc(C(F)(F)F)cc23)c1 | 1090 nM |
| Cc1cc(C(=O)Nc2ccc3c(c2)CCN3C2CCN(Cc3cc(F)cc(F)c3F)C2)no1 (stereo not drawn) | 282 nM |
| Cc1cccc2nc(-c3cccc(-c4cccc(C(=O)N5CCCCC5CN5CCC(O)C5)c4)c3)[nH]c12 (stereo not drawn) | 463 nM |
| CCCC(CNCc1cccc(C)c1)CNc1cc(=O)c2ccccc2[nH]1 (stereo not drawn) | 631 nM |
| CC(C)(C)c1ccc(CN2CCC(CNC(=O)c3cc(-c4ccccc4F)cs3)C2)cc1 (stereo not drawn) | 564 nM |
| N#Cc1ccc2c(c1)CCN(CCC1CCC(NC(=O)c3cc4ccccc4[nH]3)CC1)CC2 (stereo not drawn) | 1010 nM |
| Cc1cccc2nc(-c3ccc(-c4cccc(NC(=O)c5cncn5C)c4)cc3)[nH]c12 | 861 nM |
| COc1ccc(C(=O)COc2cccc(/C=C/C(=O)O)c2)cc1OC | 1320 nM |
| CC(=O)c1ccc(NC(=O)Nc2ccc(N(C)c3ccnc(NC4CC4)n3)cc2)cc1 | 805 nM |
| COc1ccc2nccc([C@@H](O)CN3CCC(NCc4ccc5c(c4)oc(=S)n5C)CC3)c2c1 | 187 nM |
| CN(C)c1cccc2c1nc(-c1ccc3c(c1)CCO3)n2CCNCc1ccccc1 | 734 nM |
| O=C(NC1CC1)c1cnc(N2CCC(COc3cccc(F)c3)CC2)c(Cl)c1 | 1200 nM |
| CC(C)/C(=C(/F)CN1C(=O)C(NC(=O)c2cc3ccccc3[nH]2)C(=O)N(c2ccccc2)c2ccccc21)c1ccccc1 (stereo not drawn) | 697 nM |
| CCn1c(-c2nonc2N)nc2c(-c3cccc(NC(=O)Nc4ccc(Cl)cc4)c3)ncc(OCCCN)c21 | 828 nM |
| O=C(Nc1cccc(C(F)(F)F)c1)c1cccc(S(=O)(=O)NCC2CCCN(CC3CCCCC3)C2)c1 (stereo not drawn) | 880 nM |
| CCc1ccc(C2CCN(CCCCNC(=O)c3ccc(NC(=O)c4ccc(Cl)cc4)cc3)CC2)cc1 | 646 nM |
| CN1CCN(c2ccnc3cc4c(cc23)N(C(=O)Nc2ccc(-c3ccncc3)c3ccccc23)CC4)CC1 | 945 nM |
| Cc1cc(NC2CCN(CC3CCCCC3)CC2)nc(Nc2ccccc2Cl)n1 | 642 nM |
| COc1cc(Cc2cnc(N)nc2N)cc(OCCCOc2ccccc2)c1OC | 1080 nM |
| COc1cc(CNC[C@@H](O)[C@H](Cc2ccccc2)NC(=O)c2cc(OC(C)C)cc(N3CCCS3(=O)=O)c2)cc(OC)c1 | 798 nM |
| COc1ccc(S(=O)(=O)N(c2cc(Br)cc3c2OCC3)S(=O)(=O)c2ccc(OC)c(N3CCN(C)CC3)c2)cc1N1CCN(C)CC1 | 1170 nM |
| CCc1ccc(-c2cnc(N)c3cc(-c4ccnc(N)n4)ccc23)cc1 | 1350 nM |
| CC(=O)Nc1nc(C(=O)Nc2cccc(-c3cccc(-c4nc5cc(F)ccc5[nH]4)c3)c2)cs1 | 89.2 nM |
